Reference: patent publication US12012396B2, “HDAC inhibitor solid state forms” (Viracta Subsidiary, Inc., priority 2020, dated 2024)
Entries after “also recorded” stand apart in the source; their conditions may differ. Counter-ions that a name gives are not always drawn.

Columns and labels:
Assay type in all cases: physicochemical
[1] = Thermodynamic aqueous solubility; settings: for pH of saturated solution: water, after 24 hours equilibration
Experimental: Aqueous solubility was determined by suspending sufficient compound in 0.5 ml deionized water to give a maximum final concentration of 40 mg/mi of the parent free-form of the compound. The suspension was equilibrated at 25° C., on a Heidolph plate shaker set to 750 rpm for 24 hours. After equilibration, the appearance was noted and the pH of the saturated solution was measured. Samples forming suspensions were centrifuged for 4 min at 13,500 rpm. Samples were then filtered through a glass fiber C filter (particle retention 1.2 μm), before dilution with H2O as appropriate.
Quantitation was by HPLC (see Table 2 for parameters) with reference to a standard solution of approximately 0.15 mg/ml in DMSO. Different volumes of the standard, diluted and undiluted sample solutions were injected. The solubility was calculated using the peak areas determined by integration of the peak found at the same retention time as the principal peak in the standard injection. Analysis was performed on an AgilentHPl 100/Infinity II 1260 series system equipped with a diode array detector and using OpenLAB software.

[2] = Static storage stability at elevated temperature/humidity (XRPD, HPLC purity)
Experimental: XRPD diffractograms were collected on a Bruker D8 diffractometer using Cu Kα, radiation (40 kV, 40 mA) and a 0-20 goniometer fitted with a Ge monochromator. The incident beam passes through a 2.0 mm divergence slit followed by a 0.2 mm anti-scatter slit and knife edge. The diffracted beam passes through an 8.0 mm receiving slit with 2.5° Soller slits followed by the Lynxeye Detector. The software used for data collection and analysis was Diffrac Plus XRD Commander and Diffrac Plus EVA respectively.
XRPD diffractograms were collected on a PANalytical Empyrean diffractometer using Cu Kα, radiation (45 kV, 40 mA) in transmission geometry. A 0.5° slit, 4 mm mask and 0.04 rad Soller slits with a focusing mirror were used on the incident beam. A PIXcel3D detector, placed on the diffracted beam, was fitted with a receiving slit and 0.04 rad Soller slits. The software used for data collection was X'Pert Data Collector using X'Pert Operator Interface. The data were analyzed and presented using Diffrac Plus EVA or HighScore Plus.
Purity analysis was performed on an AgilentHP1100/Infinity 111260 series system equipped with a diode array detector and using OpenLAB software.

[3] = Gravimetric Vapour Sorption (GVS); settings: for XRPD post-GVS: residue after GVS
Experimental: Sorption isotherms were obtained using a SMS DVS Intrinsic moisture sorption analyser, controlled by DVS Intrinsic Control software. The sample temperature was maintained at 25° C. by the instrument controls. The humidity was controlled by mixing streams of dry and wet nitrogen, with a total flow rate of 200 ml/min. The relative humidity was measured by a calibrated Rotronic probe (dynamic range of 1.0-100% RH), located near the sample. The weight change, (mass relaxation) of the sample as a function of % RH was constantly monitored by a microbalance (accuracy ±0.005 mg). Typically, 20-30 mg of sample was placed in a tared mesh stainless steel basket under ambient conditions. The sample was loaded and unloaded at 40% RH and 25° C. (typical room conditions). A moisture sorption isotherm was performed as outlined below (2 scans per complete cycle). The standard isotherm was performed at 25° C. at 10% RH intervals over a 0-90% RH range. Typically, a double cycle (4 scans) was carried out. Data analysis was carried out within Microsoft Excel using the DVS Analysis Suite. [table]

physchem = assay: physchem
Description: There was insufficient residue to characterize these further.

[4] = 7 days / 1 week at 25° C./97% RH
[5] = 7 days / 1 week at 40° C./75% RH

Compound | Solid form by XRPD after static storage [2, 4] | Solid form by XRPD after static storage [2, 5] | XRPD post-GVS [3] | further results
O=C(NO)c1cnc(N2C[C@@H]3[C@H](C2)[C@H]3NCc2ccc3cc(F)ccc3n2)nc1 [Compound 1, N-hydroxy-2-{6-[(6-fluoro-quinolin-2-ylmethyl)-amino]-3-aza-bicyclo[3.1.0]hex-3-yl}pyrimidine-5-carboxamide] | – | – | – | Solubility in water ([1]; deionized water, 25° C., 24 hours, maximum final concentration 40 mg/ml, listed as Free base): essentially insoluble
O=C(NO)c1cnc(N2C[C@@H]3[C@H](C2)[C@H]3NCc2ccc3cc(F)ccc3n2)nc1 [Free Base Form A, N-hydroxy 2-{6-[(6-fluoro-quinolin-2-ylmethyl)-amino]-3-aza-bicyclo[3.1.0]hex-3-yl}pyrimidine-5-carboxamide] | – | – | – | pH of saturated solution [1]: (pH = 7.4)
O=C(NO)c1cnc(N2C[C@@H]3[C@H](C2)[C@H]3NCc2ccc3cc(F)ccc3n2)nc1 [Free Base Form B, N-hydroxy 2-{6-[(6-fluoro-quinolin-2-ylmethyl)-amino]-3-aza-bicyclo[3.1.0]hex-3-yl}pyrimidine-5-carboxamide] | – | – | – | pH of saturated solution [1]: (pH = 7.4)
O=C(NO)c1cnc(N2C[C@@H]3[C@H](C2)[C@H]3NCc2ccc3cc(F)ccc3n2)nc1 [Mesylate Form 2, N-hydroxy 2-{6-[(6-fluoro-quinolin-2-ylmethyl)-amino]-3-aza-bicyclo[3.1.0]hex-3-yl}pyrimidine-5-carboxamide] | unchanged; also recorded: Mesylate Form 2 | unchanged; also recorded: Mesylate Form 2 | unchanged; also recorded: XRPD Post-GVS: Mesylate Form 2 | HPLC purity after static storage [2, 4]: 99.5%; Solid form by XRPD after static storage ([2]; 7 days / 1 week at 25° C./97% RH, listed as Form 2): stable; HPLC purity after static storage [2, 5]: 99.5%; Solid form by XRPD after static storage ([2]; 7 days / 1 week at 40° C./75% RH, listed as Form 2): stable
O=C(NO)c1cnc(N2C[C@@H]3[C@H](C2)[C@H]3NCc2ccc3cc(F)ccc3n2)nc1 [Mesylate Form 3, N-hydroxy 2-{6-[(6-fluoro-quinolin-2-ylmethyl)-amino]-3-aza-bicyclo[3.1.0]hex-3-yl}pyrimidine-5-carboxamide] | unchanged; also recorded: Mesylate Form 3 | conversion to Mesylate Form 5 | XRPD Post-GVS: Poorly crystalline broad | Solid form by XRPD after static storage ([2]; 7 days / 1 week at 25° C./97% RH, listed as Form 3): remained as Mesylate Form 3; Solid form by XRPD after static storage ([2]; 7 days / 1 week at 40° C./75% RH, listed as Form 3): convert to Mesylate Form 5; Water content after desorption ([3]; desorption cycle 1 down to 30% RH): 24.30%; Water loss, desorption cycle 1 ([3]; from 30-20% RH): Desorption Cycle 1 22%; Solubility residue pattern in FaSSGF (physchem): new solubility residue patterns
O=C(NO)c1cnc(N2C[C@@H]3[C@H](C2)[C@H]3NCc2ccc3cc(F)ccc3n2)nc1 [Mesylate Form 4, N-hydroxy 2-{6-[(6-fluoro-quinolin-2-ylmethyl)-amino]-3-aza-bicyclo[3.1.0]hex-3-yl}pyrimidine-5-carboxamide] | conversion to Mesylate Form 1; also recorded: converted to Mesylate Form 1 | mixture of Mesylate Form 1 and Form 4 | conversion to Mesylate Form 1; also recorded: Post-GVS: Converted to Mesylate Form 1 by XRPD | Hysteresis in GVS ([3]; RH range of hysteresis): displaying hysteresis loop; Water content loss, desorption cycle 1 ([3]; between 20 to 10% RH): ~9%
O=C(NO)c1cnc(N2C[C@@H]3[C@H](C2)[C@H]3NCc2ccc3cc(F)ccc3n2)nc1 [Mesylate Form 5, N-hydroxy 2-{6-[(6-fluoro-quinolin-2-ylmethyl)-amino]-3-aza-bicyclo[3.1.0]hex-3-yl}pyrimidine-5-carboxamide] | remained as Mesylate Form 5; also recorded: Unchanged: Mesylate Form 5 | remained as Mesylate Form 5; also recorded: Unchanged: Mesylate Form 5 | unchanged; also recorded: stable; also recorded: XRPD Post-GVS: Mesylate Form 5 | Solubility residue pattern in FaSSGF (physchem): new solubility residue patterns
O=C(NO)c1cnc(N2C[C@@H]3[C@H](C2)[C@H]3NCc2ccc3cc(F)ccc3n2)nc1 [Mesylate Form 6, N-hydroxy 2-{6-[(6-fluoro-quinolin-2-ylmethyl)-amino]-3-aza-bicyclo[3.1.0]hex-3-yl}pyrimidine-5-carboxamide] | converted to Mesylate Form 1 | converted to Mesylate Form 1 | – | –
O=C(NO)c1cnc(N2C[C@@H]3[C@H](C2)[C@H]3NCc2ccc3cc(F)ccc3n2)nc1 [Mesylate Form 7, N-hydroxy 2-{6-[(6-fluoro-quinolin-2-ylmethyl)-amino]-3-aza-bicyclo[3.1.0]hex-3-yl}pyrimidine-5-carboxamide] | converted to Mesylate Form 1 | converted to Mesylate Form 1 | – | –
O=C(NO)c1cnc(N2C[C@@H]3[C@H](C2)[C@H]3NCc2ccc3cc(F)ccc3n2)nc1 [Mesylate Form 8, N-hydroxy 2-{6-[(6-fluoro-quinolin-2-ylmethyl)-amino]-3-aza-bicyclo[3.1.0]hex-3-yl}pyrimidine-5-carboxamide] | converted to Mesylate Form 1 | converted to Mesylate Form 1 | – | –
O=C(NO)c1cnc(N2C[C@@H]3[C@H](C2)[C@H]3NCc2ccc3cc(F)ccc3n2)nc1 [Mesylate Form 9, N-hydroxy 2-{6-[(6-fluoro-quinolin-2-ylmethyl)-amino]-3-aza-bicyclo[3.1.0]hex-3-yl}pyrimidine-5-carboxamide] | Poorly crystalline - Mesylate Form 1 | Mesylate Form 1 | – | Appearance after static storage ([2]; 1 week at 25° C./97% RH): Sample appeared wet - white solid still present; Appearance after static storage ([2]; 1 week at 40° C./75% RH): color change to yellow; also recorded: Sample appeared ‘damp’ - yellow solid present
O=C(NO)c1cnc(N2C[C@@H]3[C@H](C2)[C@H]3NCc2ccc3cc(F)ccc3n2)nc1 [amorphous mesylate salt, N-hydroxy 2-{6-[(6-fluoro-quinolin-2-ylmethyl)-amino]-3-aza-bicyclo[3.1.0]hex-3-yl}pyrimidine-5-carboxamide] | – | – | – | Solid form by XRPD after static storage ([2]; 7 days / 1 week at 25° C./97% RH, listed as amorphous): largely amorphous; Solid form by XRPD after static storage ([2]; 7 days / 1 week at 40° C./75% RH, listed as amorphous): largely amorphous
